Read-outs that look alike come from different tables or passages of the source.
Legend:
kappa opioid receptor [1] = target: T1, kappa opioid receptor (Homo sapiens, UniProt P41145); experiment: PathHunter DiscoverX β-arrestin2 recruitment (enzyme fragment complementation) assay; assay type: cell-based; settings: for EC50: 3 parameter nonlinear regression, nc = did not converge, read-out: β-arrestin2 EC50; for β-arrestin2 Emax (% U60): relative to U69,593 = 100% Emax, ~ did not plateau at 100%
Target sequence in this assay (P41145 whole entry, the tested form may be a part): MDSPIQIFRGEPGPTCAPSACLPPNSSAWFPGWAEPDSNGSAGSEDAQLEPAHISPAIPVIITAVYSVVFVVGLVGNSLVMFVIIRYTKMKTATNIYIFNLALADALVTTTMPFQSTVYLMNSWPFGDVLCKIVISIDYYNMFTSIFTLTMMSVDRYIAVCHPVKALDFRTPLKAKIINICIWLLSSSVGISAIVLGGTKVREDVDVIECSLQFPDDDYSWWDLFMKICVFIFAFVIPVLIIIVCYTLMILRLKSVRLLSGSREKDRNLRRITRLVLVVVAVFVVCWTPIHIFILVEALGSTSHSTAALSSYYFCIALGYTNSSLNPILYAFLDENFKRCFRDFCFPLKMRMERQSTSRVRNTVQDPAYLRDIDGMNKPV
Target sequence in this assay (P32121 whole entry partner, the tested form may be a part): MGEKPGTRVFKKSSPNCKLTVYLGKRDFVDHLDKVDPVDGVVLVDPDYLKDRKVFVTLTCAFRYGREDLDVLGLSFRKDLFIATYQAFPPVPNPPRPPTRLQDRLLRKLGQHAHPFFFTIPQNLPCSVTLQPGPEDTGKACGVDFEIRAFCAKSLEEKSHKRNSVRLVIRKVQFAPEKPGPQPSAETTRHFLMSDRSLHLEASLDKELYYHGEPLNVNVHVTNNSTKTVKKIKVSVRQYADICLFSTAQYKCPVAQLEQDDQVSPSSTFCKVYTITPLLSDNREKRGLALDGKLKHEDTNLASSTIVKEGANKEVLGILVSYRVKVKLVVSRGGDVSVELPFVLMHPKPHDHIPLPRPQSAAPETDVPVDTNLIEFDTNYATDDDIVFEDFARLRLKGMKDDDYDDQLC

μ-opioid receptor = target: T2, μ-opioid receptor (Homo sapiens, UniProt P35372); experiment: Radioligand binding displacement (Psychoactive Drug Screening Program); settings: initial profiling
T2 construct: Psychoactive Drug Screening Program (UNC-CH)
T2 sequence (P35372 whole entry): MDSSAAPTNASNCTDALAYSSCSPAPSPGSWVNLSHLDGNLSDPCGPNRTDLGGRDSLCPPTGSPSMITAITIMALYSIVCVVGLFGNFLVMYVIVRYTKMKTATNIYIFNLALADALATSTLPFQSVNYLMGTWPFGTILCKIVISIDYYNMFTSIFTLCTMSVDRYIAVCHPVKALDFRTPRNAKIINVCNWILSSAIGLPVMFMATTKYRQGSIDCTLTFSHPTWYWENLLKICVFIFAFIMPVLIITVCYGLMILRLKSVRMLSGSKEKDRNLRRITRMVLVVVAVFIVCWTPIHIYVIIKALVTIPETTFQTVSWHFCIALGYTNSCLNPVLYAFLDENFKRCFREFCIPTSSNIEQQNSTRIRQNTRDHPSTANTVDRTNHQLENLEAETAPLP
Excerpt: (§1) In some embodiments, the compounds disclosed herein are selective KOR binding ligands. As used herein, the term “selective binding ligands” refers to compounds, which display an increased selectivity for binding a particular KOR when compared to inhibiting other opioid receptors (such as μ- and δ-opioid receptors).

δ-opioid receptor = target: T3, δ-opioid receptor (Homo sapiens, UniProt P41143); experiment: as above; settings: initial profiling
T3 construct: Psychoactive Drug Screening Program (UNC-CH)
T3 sequence (P41143 whole entry): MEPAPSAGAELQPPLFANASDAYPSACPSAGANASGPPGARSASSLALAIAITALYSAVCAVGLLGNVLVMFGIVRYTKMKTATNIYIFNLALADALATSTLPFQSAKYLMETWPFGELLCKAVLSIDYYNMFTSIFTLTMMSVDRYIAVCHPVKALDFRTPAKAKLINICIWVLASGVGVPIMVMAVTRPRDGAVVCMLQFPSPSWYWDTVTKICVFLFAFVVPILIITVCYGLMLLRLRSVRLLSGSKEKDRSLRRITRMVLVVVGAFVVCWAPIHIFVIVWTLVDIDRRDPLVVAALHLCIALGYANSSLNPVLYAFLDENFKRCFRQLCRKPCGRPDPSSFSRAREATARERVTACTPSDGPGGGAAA
Excerpt: as §1

adult male C57BL6/J mice [2] = settings: mouse, in vivo
[3] = mouse, microsomes
Protocol: (§2) Microsomal stability was determined using mouse hepatic microsomes and LC/MS detections over time (Zhou et al., 2013, 22).

kappa opioid receptor [4] = target: T1, kappa opioid receptor; experiment: GTPγS binding assay (G-protein activation); assay type: biochemical; settings: for EC50: 3 parameter nonlinear regression, nc = did not converge; for GTPγS Emax (% U60): relative to U69,593 = 100% Emax
Target sequence in this assay (P41145 whole entry, the tested form may be a part): as the sequence (P41145 whole entry, the tested form may be a part) above

kappa opioid receptor [5] = target: T1, kappa opioid receptor; experiment: Bias analysis by operational model, G protein vs βarrestin2, U69,593 as reference agonist; settings: U69,593 reference agonist; global parameter fitting
Target sequence in this assay (P41145 whole entry, the tested form may be a part): as above

adult male C57BL6/J mice [6] = experiment: Open field test box mouse model for sedation; settings: 60 minutes
[7] = Microsomal stability, LC/MS detection over time; settings: mouse hepatic microsomes
Protocol: as §2

SMILES | EC50 (kappa opioid receptor [1]) | β-arrestin2 Emax (% U60) (kappa opioid receptor [1]) | displacement of radioligand binding to μ-opioid receptor (μ-opioid receptor) | displacement of radioligand binding to δ-opioid receptor (δ-opioid receptor) | sedation in open field test activity monitor (adult male C57BL6/J mice [2]) | Microsomal Stability [3] | KOR potency / activity in words (SAR commentary) (kappa opioid receptor [4]) | EC50 (kappa opioid receptor [4]) | GTPγS Emax (% U60) (kappa opioid receptor [4]) | Bias (bias factor 10^ΔΔ(logτ/KA) Gprotein-Barr2) (kappa opioid receptor [5]) | sedation in open field test activity monitor (adult male C57BL6/J mice [6]) | time spent in the center of the open field box (adult male C57BL6/J mice [6]) | Microsomal Stability [7] | β-arrestin2 maximum stimulation observed at 10 μM (starred Emax cells / % max at 10 uM) (kappa opioid receptor [1]; * compounds that did not reach plateau, 10 μM)
Cc1ccc(CCc2nnc(-c3ccccn3)n2Cc2cccs2)cc1C(F)(F)F [Compound 5] | 624 nM | 110 % U60 | less than 50% | less than 50% | does not induce sedation | – | – | – | – | – | – | – | – | –
Cc1ccc(/C=C/c2nnc(-c3ccccn3)n2Cc2ccco2)cc1C(F)(F)F (single isomer, unassigned) [Compound 40] | 7200 nM | 54 % U60 | – | – | – | 18 min | loss in potency | 1600 nM | 97 % U60 | 5 | – | – | – | –
Cc1ccc(CSc2nnc(-c3ccccn3)n2Cc2ccco2)cc1C(F)(F)F [Triazole 1.1] | – | – | – | – | – | – | – | – | – | – | does not induce sedation | did not effect center time | 1.1 min | –
Cc1ccc(/C=C/c2nnc(-c3ccccn3)n2Cc2cccs2)cc1C(F)(F)F [49 (UNC9009)] | 20600 nM | – | – | – | – | – | – | 667 nM | 83.2 % U60 | 6.7 | – | – | – | 36.4 (% max at 10 uM) % U60
